Where two headings read alike, the source gives them in different places.
Tests used:
[1] = tested on: IFNγ-induced NO production in RAW 264.7 cells; assay: Nitric Oxide Suppression Assay (IFNγ-induced NO, Griess nitrite readout); type: cell-based, mouse; details: for IC50: Mus musculus; for Avg NO IC50 Relative to RTA402 (fold): Table 2, ratio to RTA402
In short: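 Nitrite, a surrogate for NO, was measured by Griess reagent (525 nm) and quantified from standards by linear regression, expressed as percent of DMSO plus IFNγ control to give IC50. RAW 264.7 cells had 2 h compound pretreatment, then 24 h with 20 ng/mL IFNγ; WST-1 checked viability.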

[2] = tested on: Nrf2 / ARE-dependent luciferase in AREc32 reporter cell line; assay: AREc32 luciferase reporter activation (Nrf2 induction); type: cell-based, human; details: for EC (2-fold): Homo sapiens, Arec32; for Relative Avg AREc32 EC2X Relative to RTA402 (fold): ratio to RTA402
In short: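 EC2X is the concentration raising luminescence 2-fold above DMSO-treated cells, from a nonlinear-regression dose–response fit. Compounds (0.03–1000 nM) were applied for nineteen hours, starting one day after seeding 20,000 reporter cells per well. Luciferase was read with One-Glo reagent.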

[3] = RAW264.7, Table 2, RAW 264.7 cells, 2 h pretreatment, 20 ng/mL interferon gamma 24 h, read-out: Avg NO IC50 (nM) (Mean ± SD)
[4] = Table 2, concentration increasing luminescence 2-fold above vehicle, 19 h treatment, read-out: Avg AREc32 EC2X (nM) (Mean ± SD)
[5] = RAW264.7, Table 3, ursolic acid derivatives, read-out: Avg NO IC50 (nM) (Mean ± SD)
[6] = Table 3, ursolic acid derivatives, read-out: Avg ARE EC-2X (nM) (Mean ± SD)
[7] = RAW264.7, Table 3, oleanolic acid derivative analogs, read-out: Avg NO IC50
[8] = Table 3, oleanolic acid derivative analogs, read-out: Avg ARE EC-2X

| SMILES | IC50 [1, 3] | Avg NO IC50 Relative to RTA402 (fold) [1] | EC (2-fold) [2, 4] | Relative Avg AREc32 EC2X Relative to RTA402 (fold) ([2]; Table 2) | IC50 [1, 5] | EC (2-fold) [2, 6] | IC50 [1, 7] | EC (2-fold) [2, 8] |
| --- | --- | --- | --- | --- | --- | --- | --- | --- |
| C[C@@H]1[C@H]2[C@H]3C(=O)C=C4[C@@]5(C)C=C(C#N)C(=O)C(C)(C)[C@@H]5CC[C@@]4(C)[C@]3(C)CC[C@@]2(CC(=O)O)CC[C@H]1C [Compound T89] | 14.6 ± 2.2 nM | 8.03 ± 3.23 fold | 3.62 ± 1.73 nM | 0.345 ± 0.161 fold | – | – | – | – |
| C[C@@H]1[C@H]2[C@H]3C(=O)C=C4[C@@]5(C)C=C(C#N)C(=O)C(C)(C)[C@@H]5CC[C@@]4(C)[C@]3(C)CC[C@@]2(CN2CCOC2=O)CC[C@H]1C [Compound T41] | 5.41 ± 2.52 nM | 1.79 ± 0.77 fold | 4.73 ± 2.12 nM | 0.354 ± 0.155 fold | 5.41 ± 2.52 nM | 4.73 ± 2.12 nM | – | – |
| C[C@@H]1[C@H]2[C@H]3C(=O)C=C4[C@@]5(C)C=C(C#N)C(=O)C(C)(C)[C@@H]5CC[C@@]4(C)[C@]3(C)CC[C@@]2(CN2CCCC2=O)CC[C@H]1C [Compound T15] | 4.2 ± 2.4 nM | 1.99 ± 0.20 fold | 5.21 ± 1.11 nM | 0.447 ± 0.085 fold | 4.2 ± 2.4 nM | 5.21 ± 1.11 nM | – | – |
| CC1(C)CC[C@]2(CN3CCCC3=O)CC[C@]3(C)[C@H](C(=O)C=C4[C@@]5(C)C=C(C#N)C(=O)C(C)(C)[C@@H]5CC[C@]43C)[C@@H]2C1 [CC15, reference compound] | – | – | – | – | – | – | 1.1 nM | 6.66 nM |
| CC1(C)CC[C@]2(n3ccnc3)CC[C@]3(C)[C@H](C(=O)C=C4[C@@]5(C)C=C(C#N)C(=O)C(C)(C)[C@@H]5CC[C@]43C)[C@@H]2C1 [CC62, reference compound] | – | – | – | – | – | – | 3.2 nM | 26.8 nM |
| C[C@@H]1[C@H]2[C@H]3C(=O)C=C4[C@@]5(C)C=C(C#N)C(=O)C(C)(C)[C@@H]5CC[C@@]4(C)[C@]3(C)CC[C@@]2(CC(N)=O)CC[C@H]1C [Compound T90] | 8.74 ± 2.77 nM | 4.60 ± 2.34 fold | 3.71 ± 0.99 nM | 0.455 ± 0.131 fold | – | – | – | – |
| Cc1noc(C[C@]23CC[C@@H](C)[C@H](C)[C@H]2[C@H]2C(=O)C=C4[C@@]5(C)C=C(C#N)C(=O)C(C)(C)[C@@H]5CC[C@@]4(C)[C@]2(C)CC3)n1 [Compound T96] | 13.3 ± 3.7 nM | 7.08 ± 3.49 fold | 10.6 ± 0.7 nM | 1.32 ± 0.21 fold | – | – | – | – |
| CCc1noc([C@]23CC[C@@H](C)[C@H](C)[C@H]2[C@H]2C(=O)C=C4[C@@]5(C)C=C(C#N)C(=O)C(C)(C)[C@@H]5CC[C@@]4(C)[C@]2(C)CC3)n1 [Compound T4] | 14.8 ± 2.9 nM | 7.06 ± 0.83 fold | 19.9 ± 0.2 nM | 1.93 ± 0.23 fold | 14.8 ± 2.9 nM | 19.9 ± 0.2 nM | – | – |
| C[C@@H]1[C@H]2[C@H]3C(=O)C=C4[C@@]5(C)C=C(C#N)C(=O)C(C)(C)[C@@H]5CC[C@@]4(C)[C@]3(C)CC[C@@]2(CNC(=O)C2CC2)CC[C@H]1C [Compound T19] | 2.33 ± 1.47 nM | 0.74 ± 0.14 fold | 2.27 ± 0.52 nM | 0.224 ± 0.072 fold | 2.33 ± 1.47 nM | 2.27 ± 0.52 nM | – | – |
| C[C@@H]1[C@H]2[C@H]3C(=O)C=C4[C@@]5(C)C=C(C#N)C(=O)C(C)(C)[C@@H]5CC[C@@]4(C)[C@]3(C)CC[C@@]2(C(=O)N2CCCC2)CC[C@H]1C [Compound T71] | 19.7 ± 1.8 nM | 13 ± 2.7 fold | 29.3 ± 8.1 nM | 2.95 ± 0.14 fold | – | – | – | – |
| C[C@@H]1[C@H]2[C@H]3C(=O)C[C@@H]4[C@@]5(C)C=C(C#N)C(=O)C(C)(C)[C@@H]5CC[C@@]4(C)[C@]3(C)CC[C@@]2(CNC(=O)OC(C)(C)C)CC[C@H]1C [Compound T106] | 57.4 ± 15.7 nM | 37.4 ± 3.76 fold | 265 ± 21 nM | 28.2 ± 4.5 fold | – | – | – | – |
| CO/N=C/[C@]12CC[C@@H](C)[C@H](C)[C@H]1[C@H]1C(=O)C=C3[C@@]4(C)C=C(C#N)C(=O)C(C)(C)[C@@H]4CC[C@@]3(C)[C@]1(C)CC2 [Compound T57] | 20.1 ± 6 nM | 8.81 ± 0.63 fold | 34.1 ± 4.98 nM | 2.73 ± 0.34 fold | – | – | – | – |
| COCc1noc([C@]23CC[C@@H](C)[C@H](C)[C@H]2[C@H]2C(=O)C=C4[C@@]5(C)C=C(C#N)C(=O)C(C)(C)[C@@H]5CC[C@@]4(C)[C@]2(C)CC3)n1 [Compound T3] | 5.1 ± 1.02 nM | 2.51 ± 0.94 fold | 6.16 ± 1.02 nM | 0.598 ± 0.137 fold | – | – | – | – |
| C[C@@H]1[C@H]2[C@H]3C(=O)C=C4[C@@]5(C)C=C(C#N)C(=O)C(C)(C)[C@@H]5CC[C@@]4(C)[C@]3(C)CC[C@@]2(CN2C(=O)CCC2=O)CC[C@H]1C [Compound T75] | 3.23 ± 0.65 nM | 1.46 ± 0.46 fold | 2.47 ± 0.64 nM | 0.242 ± 0.070 fold | – | – | – | – |
| C[C@@H]1[C@H]2[C@H]3C(=O)C=C4[C@@]5(C)C=C(C#N)C(=O)C(C)(C)[C@@H]5CC[C@@]4(C)[C@]3(C)CC[C@@]2(c2nc(C3CC3)no2)CC[C@H]1C [Compound T2] | 21.3 ± 7.4 nM | 9.86 ± 0.83 fold | 35 ± 2 nM | 3.41 ± 0.20 fold | 21.3 ± 7.4 nM | 35 ± 2 nM | – | – |
| C[C@@H]1[C@H]2[C@H]3C(=O)C=C4[C@@]5(C)C=C(C#N)C(=O)C(C)(C)[C@@H]5CC[C@@]4(C)[C@]3(C)CC[C@@]2(C(=O)NC2CC2)CC[C@H]1C [Compound T86] | 28.5 ± 6.5 nM | 7.09 ± 1.54 fold | 24.8 ± 6.4 nM | 2.12 ± 0.16 fold | – | – | – | – |
| COC(=O)C[C@]12CC[C@@H](C)[C@H](C)[C@H]1[C@H]1C(=O)C=C3[C@@]4(C)C=C(C#N)C(=O)C(C)(C)[C@@H]4CC[C@@]3(C)[C@]1(C)CC2 [Compound T88] | 12.9 ± 5.1 nM | 6.48 ± 0.96 fold | 10.7 ± 3.2 nM | 1.03 ± 0.33 fold | – | – | – | – |
| C[C@@H]1[C@H]2[C@H]3C(=O)C=C4[C@@]5(C)C=C(C#N)C(=O)C(C)(C)[C@@H]5CC[C@@]4(C)[C@]3(C)CC[C@@]2(CNS(=O)(=O)C2CC2)CC[C@H]1C [Compound T33] | 6.84 ± 1.59 nM | 2.32 ± 0.42 fold | 6.93 ± 1 nM | 0.621 ± 0.137 fold | – | – | – | – |
| CNC(=O)[C@]12CC[C@@H](C)[C@H](C)[C@H]1[C@H]1C(=O)C=C3[C@@]4(C)C=C(C#N)C(=O)C(C)(C)[C@@H]4CC[C@@]3(C)[C@]1(C)CC2 [Compound T85] | 26.8 ± 4.7 nM | 9.84 ± 1.92 fold | 19 ± 3.5 nM | 1.63 ± 0.17 fold | – | – | – | – |
| C[C@@H]1[C@H]2[C@H]3C(=O)C=C4[C@@]5(C)C=C(C#N)C(=O)C(C)(C)[C@@H]5CC[C@@]4(C)[C@]3(C)CC[C@@]2(CN)CC[C@H]1C [Compound T21] | 26 ± 7.6 nM | 10.9 ± 1.6 fold | 14.7 ± 1.3 nM | 1.27 ± 0.045 fold | 26 ± 7.6 nM | 14.7 ± 1.3 nM | – | – |
| Cc1cn(C[C@]23CC[C@@H](C)[C@H](C)[C@H]2[C@H]2C(=O)C=C4[C@@]5(C)C=C(C#N)C(=O)C(C)(C)[C@@H]5CC[C@@]4(C)[C@]2(C)CC3)nn1 [Compound T49] | 11.5 ± 2.6 nM | 3.77 ± 0.33 fold | 7.97 ± 0.73 nM | 0.643 ± 0.116 fold | 11.5 ± 2.6 nM | 7.97 ± 0.73 nM | – | – |
| C[C@@H]1[C@H]2[C@H]3C(=O)C=C4[C@@]5(C)C=C(C#N)C(=O)C(C)(C)[C@@H]5CC[C@@]4(C)[C@]3(C)CC[C@@]2(c2nc(CN(C)C)no2)CC[C@H]1C [Compound T8] | 3.33 ± 0.68 nM | 1.59 ± 0.20 fold | 3.72 ± 0.97 nM | 0.321 ± 0.059 fold | 3.33 ± 0.68 nM | 3.72 ± 0.97 nM | – | – |
| C[C@@H]1[C@H]2[C@H]3C(=O)C=C4[C@@]5(C)C=C(C#N)C(=O)C(C)(C)[C@@H]5CC[C@@]4(C)[C@]3(C)CC[C@@]2(Cn2cnnn2)CC[C@H]1C [Compound T52] | 8.99 ± 1.84 nM | 3.35 ± 0.65 fold | 8.74 ± 0.51 nM | 0.654 ± 0.079 fold | – | – | – | – |
| C[C@@H]1[C@H]2[C@H]3C(=O)C=C4[C@@]5(C)C=C(C#N)C(=O)C(C)(C)[C@@H]5CC[C@@]4(C)[C@]3(C)CC[C@@]2(N)CC[C@H]1C [Compound T16] | 15 ± 3.7 nM | 7.63 ± 2.99 fold | 20.5 ± 6 nM | 1.61 ± 0.084 fold | 15 ± 3.7 nM | 20.5 ± 6 nM | – | – |
